Test results reported in patent publication US8933039B2 (NPS Pharmaceuticals, Inc., priority 1995, dated 2015).
Non-standard residues stand in square brackets, D forms with d. No end group written: not given here. Nva = CCC[C@H](N)C(=O)O; Aib = CC(C)(N)C(=O)O

Key:
[1] = system: dipeptidyl peptidase IV (DPP-IV); test: human placental DPP-IV (Calbiochem), 0.125 mU, added to test peptide in PBS at pH 7.4; conditions: 37° C., up to 24 hours
DPP-IV = DPP-IV (Homo sapiens, UniProt P27487); test: Assay for resistance to dipeptidyl peptidase IV (RP-HPLC of cleavage product); conditions: human, isolated human placental DPP-IV (dipeptidyl peptidase IV), pH 7.4, % Cleaved by DPP-IV, as Example 3: human placental DPP-IV, 37° C., PBS pH 7.4
DPP-IV, sequence (P27487 whole entry): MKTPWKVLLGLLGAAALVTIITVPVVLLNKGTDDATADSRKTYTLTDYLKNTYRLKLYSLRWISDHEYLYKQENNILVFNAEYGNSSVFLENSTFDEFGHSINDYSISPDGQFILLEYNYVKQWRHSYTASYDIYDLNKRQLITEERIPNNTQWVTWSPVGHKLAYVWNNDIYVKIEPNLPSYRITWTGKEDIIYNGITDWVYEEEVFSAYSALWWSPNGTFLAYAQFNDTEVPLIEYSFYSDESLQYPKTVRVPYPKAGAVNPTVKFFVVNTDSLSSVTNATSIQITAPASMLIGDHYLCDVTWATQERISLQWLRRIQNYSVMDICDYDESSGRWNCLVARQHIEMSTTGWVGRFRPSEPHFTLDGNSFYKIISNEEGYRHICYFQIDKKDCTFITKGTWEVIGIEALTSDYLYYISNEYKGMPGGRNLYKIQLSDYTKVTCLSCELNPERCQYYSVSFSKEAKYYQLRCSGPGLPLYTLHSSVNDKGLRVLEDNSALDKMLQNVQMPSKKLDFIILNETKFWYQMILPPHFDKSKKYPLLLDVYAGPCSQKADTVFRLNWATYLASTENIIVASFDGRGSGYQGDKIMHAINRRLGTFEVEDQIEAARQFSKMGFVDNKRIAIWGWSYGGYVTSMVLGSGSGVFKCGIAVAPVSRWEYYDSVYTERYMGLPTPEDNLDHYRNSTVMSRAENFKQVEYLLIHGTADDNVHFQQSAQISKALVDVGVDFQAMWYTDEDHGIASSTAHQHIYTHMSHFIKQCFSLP
Experimental: The mixture was incubated at 37° C. in a circulating water bath for 24 hours. The incubation was quenched by the addition of 50 μl of a solution of diprotin A prepared at a concentration of 4 mg/ml in PBS. Each peptide was tested in duplicate.
Each sample was analyzed by reverse-phase (RP) HPLC as follows: 90 μl of the quenched incubation mixture was injected onto a Rainin Dynamax 300 Å, C18, 5 micron, 4.6×250 millimeter column. The samples were eluted with 0.1% trifluoroacetic acid (TFA) in water modified with 0.1% acetonitrile using a linear gradient and a flow rate of 1 ml per minute. Sample components were detected at 214 nanometers (nm). The extent of cleavage was measured by relative integration of the peak corresponding to the cleavage product compared to that of the remaining undigested parent peptide.

CD1 mice = test: Intestinotrophic activity assessment: small bowel weight in mice; type: in vivo; conditions: for % Increase in small bowel weight: CD1 mice, 2.5 μg peptide s.c. b.i.d. in PBS, sacrificed 10 or 14 days, relative to vehicle only; for % Activity (small bowel inducing activity relative to native rat GLP-2(1-33) = 100%): mice, as Example 4
Outline: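 Female CD1 mice, 6 weeks old (n=3-4/group), given 2.5 μg peptide s.c. b.i.d. in PBS; sacrificed 10 or 14 days later after ≥20 h fast. Small bowel (pylorus to cecum) weighed; percent change versus vehicle mice, also expressed relative to rat GLP-2(1-33) set as 100%.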

| Substance | not cleaved [1] [% cleaved by DPP-IV] | metabolised at 24 h, 0.19 mg/ml (DPP-IV) [%] | % Increase in small bowel weight (CD1 mice) [%] | % Activity (small bowel inducing activity relative to native rat GLP-2(1-33) = 100%) (CD1 mice) [%] |
| --- | --- | --- | --- | --- |
| Ac-ratGLP-2(1-33) (Ac-HADGSFSDEMNTILDNLATRDFINWLIQTKITD-OH) | 0 | – | – | – |
| H-HGDASFSDEMNTILDNLAARDFINWLIQTKITD-OH [[Gly2,Ala4]hGLP-2(1-33)] | – | 0 | 36 | 100 |
| H-HGDGAFSDEMNTILDNLAARDFINWLIQTKITD-OH [[Gly2,Ala5]hGLP-2(1-33)] | – | 0 | 38 | 136 |
| H-HGDGSFSDEMNTILDNLAARDFIAWLIQTKITD-OH [[Gly2,Ala24]hGLP-2(1-33)] | – | 0 | 67 | 139 |
| H-HHDGSFSDEMNTILDNLAARDFINWLIQTKITD-OH [[His2]hGLP-2(1-33)] | – | 0 | – | 0 |
| H-HIDGSFSDEMNTILDNLAARDFINWLIQTKITD-OH [[Ile2]hGLP-2(1-33)] | – | 0 | – | 90 |
| H-HKDGSFSDEMNTILDNLAARDFINWLIQTKITD-OH [[Lys2]hGLP-2(1-33)] | – | 0 | – | 90 |
| H-HMDGSFSDEMNTILDNLAARDFINWLIQTKITD-OH [[Met2]hGLP-2(1-33)] | – | 0 | – | 170 |
| H-HNDGSFSDEMNTILDNLAARDFINWLIQTKITD-OH [[Asn2]hGLP-2(1-33)] | – | 0 | – | 67 |
| H-HPDGSFSDEMNTILDNLAARDFINWLIQTKITD-OH [[Pro2]hGLP-2(1-33)] | – | 16 | – | 50 |
| H-HQDGSFSDEMNTILDNLAARDFINWLIQTKITD-OH [[Gln2]hGLP-2(1-33)] | – | 0 | – | 100 |
| H-HSDGSFSDEMNTILDNLAARDFINWLIQTKITD-OH [[Ser2]hGLP-2(1-33)] | – | 0 | – | 167 |
| H-HTDGSFSDEMNTILDNLAARDFINWLIQTKITD-OH [[Thr2]hGLP-2(1-33)] | – | 0 | – | 117 |
| H-HVDGSFSDEMNTILDNLAARDFINWLIQTKITD-OH [[Val2]hGLP-2(1-33)] | – | 13 | – | 180 |
| H-HYDGSFSDEMNTILDNLAARDFINWLIQTKITD-OH [[Tyr2]hGLP-2(1-33)] | – | 0 | – | 57 |
| H-PADGSFSDEMNTILDNLAARDFINWLIQTKITD-OH [[Pro1]hGLP-2(1-33)] | – | 0 | – | 12 |
| H-RHADGSFSDEMNTILDNLATRDFINWLIQTKITD-OH [[Arg-l]ratGLP-2(-1-33)] | – | 0 | – | 11 |
| H-YADGSFSDEMNTILDNLATRDFINWLIQTKITD-OH [[Tyr1]ratGLP-2(1-33)] | – | 100 | 37 | 81 |
| H-YGDGSFSDEMNTILDNLAARDFINWLIQTKITD-OH [[Tyr1, Gly2]hGLP-2(1-33)] | – | 0 | – | 241 |
| HVDGSFSDEMNTILDNLATRDFINWLIQTKITD [[Val2]GLP-2(1-33)] | – | 0 | 65 | 145 |
| [Aib2]hGLP-2(1-33) (H-H[Aib]DGSFSDEMNTILDNLAARDFINWLIQTKITD-OH; SMILES CC[C@H](C)[C@H](NC(=O)[C@H](Cc1ccccc1)NC(=O)[C@H](CC(=O)O)NC(=O)[C@H](CCCNC(=N)N)NC(=O)[C@H](C)NC(=O)[C@H](C)NC(=O)[C@H](CC(C)C)NC(=O)[C@H](CC(N)=O)NC(=O)[C@H](CC(=O)O)NC(=O)[C@H](CC(C)C)NC(=O)[C@@H](NC(=O)[C@@H](NC(=O)[C@H](CC(N)=O)NC(=O)[C@H](CCSC)NC(=O)[C@H](CCC(=O)O)NC(=O)[C@H](CC(=O)O)NC(=O)[C@H](CO)NC(=O)[C@H](Cc1ccccc1)NC(=O)[C@H](CO)NC(=O)CNC(=O)[C@H](CC(=O)O)NC(=O)C(C)(C)NC(=O)[C@@H](N)Cc1c[nH]cn1)[C@@H](C)O)[C@@H](C)CC)C(=O)N[C@@H](CC(N)=O)C(=O)N[C@@H](Cc1c[nH]c2ccccc12)C(=O)N[C@@H](CC(C)C)C(=O)N[C@H](C(=O)N[C@@H](CCC(N)=O)C(=O)N[C@H](C(=O)N[C@@H](CCCCN)C(=O)N[C@H](C(=O)N[C@H](C(=O)N[C@@H](CC(=O)O)C(=O)O)[C@@H](C)O)[C@@H](C)CC)[C@@H](C)O)[C@@H](C)CC) | 0 | – | – | – |

| Substance | not cleaved [1] [% cleaved by DPP-IV] | metabolised at 24 h, 0.19 mg/ml (DPP-IV) [%] | % Increase in small bowel weight (CD1 mice) [%] | % Activity (small bowel inducing activity relative to native rat GLP-2(1-33) = 100%) (CD1 mice) [%] |
| --- | --- | --- | --- | --- |
| [Ala1,Gly2]hGLP-2(1-33) (H-AGDGSFSDEMNTILDNLAARDFINWLIQTKITD-OH) | 0 | – | – | – |
| [Arg-2,Arg-1]ratGLP-2(2-33) | 0 | – | – | – |
| [Arg-l]ratGLP-2(-1-33) (H-RHADGSFSDEMNTILDNLATRDFINWLIQTKITD-OH) | 0 | – | – | – |
| [Asn2]hGLP-2(1-33) (H-HNDGSFSDEMNTILDNLAARDFINWLIQTKITD-OH) | 0 | – | – | – |
| [Asp1]hGLP-2(1-33) (H-DADGSFSDEMNTILDNLAARDFINWLIQTKITD-OH) | 0 | – | – | – |
| [Asp2]hGLP-2(1-33) (H-HDDGSFSDEMNTILDNLAARDFINWLIQTKITD-OH) | 0 | – | – | – |
| [D-Ala2]hGLP-2(1-33) | 0 | – | – | – |
| [Gln2]hGLP-2(1-33) (H-HQDGSFSDEMNTILDNLAARDFINWLIQTKITD-OH) | 0 | – | – | – |
| [Glu2]hGLP-2(1-33) (H-HEDGSFSDEMNTILDNLAARDFINWLIQTKITD-OH) | 0 | – | – | – |
| [Gly2, Arg34]hGLP-2(1-34) | 0 | – | – | – |
| [Gly2, Tyr34]hGLP-2(1-34) | 0 | – | – | – |
| [Gly2,Ala3]hGLP-2(1-33) (H-HGAGSFSDEMNTILDNLAARDFINWLIQTKITD-OH) | 0 | – | – | – |
| [Gly2,Ala4]hGLP-2(1-33) (H-HGDASFSDEMNTILDNLAARDFINWLIQTKITD-OH) | 0 | – | – | – |
| [Gly2,Ala5]hGLP-2(1-33) (H-HGDGAFSDEMNTILDNLAARDFINWLIQTKITD-OH) | 0 | – | – | – |
| [Gly2,Ala24]hGLP-2(1-33) (H-HGDGSFSDEMNTILDNLAARDFIAWLIQTKITD-OH) | 0 | – | – | – |
| [Gly2]hGLP-2(1-33) | 0 | – | – | – |
| [His2]hGLP-2(1-33) (H-HHDGSFSDEMNTILDNLAARDFINWLIQTKITD-OH) | 0 | – | – | – |
| [Ile2]hGLP-2(1-33) (H-HIDGSFSDEMNTILDNLAARDFINWLIQTKITD-OH) | 0 | – | – | – |
| [Lys2]hGLP-2(1-33) (H-HKDGSFSDEMNTILDNLAARDFINWLIQTKITD-OH) | 0 | – | – | – |
| [Met2]hGLP-2(1-33) (H-HMDGSFSDEMNTILDNLAARDFINWLIQTKITD-OH) | 0 | – | – | – |
| [Nval2]hGLP-2(1-33) (H-H[Nva]DGSFSDEMNTILDNLAARDFINWLIQTKITD-OH; SMILES CCC[C@H](NC(=O)[C@@H](N)Cc1c[nH]cn1)C(=O)N[C@@H](CC(=O)O)C(=O)NCC(=O)N[C@@H](CO)C(=O)N[C@@H](Cc1ccccc1)C(=O)N[C@@H](CO)C(=O)N[C@@H](CC(=O)O)C(=O)N[C@@H](CCC(=O)O)C(=O)N[C@@H](CCSC)C(=O)N[C@@H](CC(N)=O)C(=O)N[C@H](C(=O)N[C@H](C(=O)N[C@@H](CC(C)C)C(=O)N[C@@H](CC(=O)O)C(=O)N[C@@H](CC(N)=O)C(=O)N[C@@H](CC(C)C)C(=O)N[C@@H](C)C(=O)N[C@@H](C)C(=O)N[C@@H](CCCNC(=N)N)C(=O)N[C@@H](CC(=O)O)C(=O)N[C@@H](Cc1ccccc1)C(=O)N[C@H](C(=O)N[C@@H](CC(N)=O)C(=O)N[C@@H](Cc1c[nH]c2ccccc12)C(=O)N[C@@H](CC(C)C)C(=O)N[C@H](C(=O)N[C@@H](CCC(N)=O)C(=O)N[C@H](C(=O)N[C@@H](CCCCN)C(=O)N[C@H](C(=O)N[C@H](C(=O)N[C@@H](CC(=O)O)C(=O)O)[C@@H](C)O)[C@@H](C)CC)[C@@H](C)O)[C@@H](C)CC)[C@@H](C)CC)[C@@H](C)CC)[C@@H](C)O) | 0 | – | – | – |
